Assay results from ChEMBL document CHEMBL1201862, “PubChem BioAssay data set” (2004).
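Dose response: 5 concentrations. Exposure: 48 h. Format: 96-well plates. Endpoint: linear interpolation; highest concentration if not reached. GI50 is the concentration that inhibits growth by half.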 Calls of active or inactive are those of the source. Cut-off read from the data, not from the text of the source: active = GI50 up to about 1.1 µM and inactive = higher.

Assays:
Assay in all cases: NCI tumour cell line growth inhibition, 48 h
[1] = tested on: A498
[2] = tested on: A549
[3] = tested on: CCRF-CEM
[4] = tested on: HCT-116
[5] = tested on: HOP-62
[6] = tested on: IGROV-1
[7] = tested on: M14
[8] = tested on: MDA-MB-435
[9] = tested on: MDA-N
[10] = tested on: NCI-H23
[11] = tested on: NCI-H460
[12] = tested on: NCI-H522
[13] = tested on: OVCAR-5
[14] = tested on: SK-MEL-28
[15] = tested on: SK-MEL-5
[16] = tested on: SK-OV-3
[17] = tested on: SNB-19
[18] = tested on: T47D

Structure (SMILES)	GI50 [1]	GI50 [2]	GI50 [3]	GI50 [4]	GI50 [5]	GI50 [6]	GI50 [7]	GI50 [8]	GI50 [9]	GI50 [10]	GI50 [11]	GI50 [12]	GI50 [13]	GI50 [14]	GI50 [15]	GI50 [16]	GI50 [17]	GI50 [18]
Cc1ccc(S(=O)(=O)N/N=C2\CC3C4C=CC3C2C4)cc1 (stereo not given)	> 100 µM (inactive)	> 100 µM (inactive)	> 100 µM (inactive)	> 100 µM (inactive)	> 100 µM (inactive)	> 100 µM (inactive)	> 100 µM (inactive)	> 100 µM (inactive)	> 100 µM (inactive)	> 100 µM (inactive)	> 100 µM (inactive)	> 100 µM (inactive)	> 100 µM (inactive)	> 100 µM (inactive)	> 100 µM (inactive)	> 100 µM (inactive)	> 100 µM (inactive)	> 100 µM (inactive)
CC(C)(C)C(=O)C(C#N)C(=O)C(C)(C)C	> 100 µM (inactive)	> 100 µM (inactive)	> 100 µM (inactive)	> 100 µM (inactive)	> 100 µM (inactive)	> 100 µM (inactive)	> 100 µM (inactive)	> 100 µM (inactive)	> 100 µM (inactive)	> 100 µM (inactive)	> 100 µM (inactive)	> 100 µM (inactive)	> 100 µM (inactive)	> 100 µM (inactive)	> 100 µM (inactive)	> 100 µM (inactive)	> 100 µM (inactive)	> 100 µM (inactive)
COc1ccccc1CC(=O)C(O)(C(F)(F)F)C(F)(F)F	> 100 µM (inactive)	> 100 µM (inactive)	> 100 µM (inactive)	> 100 µM (inactive)	> 100 µM (inactive)	> 100 µM (inactive)	> 100 µM (inactive)	> 100 µM (inactive)	> 100 µM (inactive)	> 100 µM (inactive)	> 100 µM (inactive)	> 100 µM (inactive)	> 100 µM (inactive)	> 100 µM (inactive)	> 100 µM (inactive)	> 100 µM (inactive)	> 100 µM (inactive)	> 100 µM (inactive)
Cn1c(=O)c(Br)c(C=O)n(CCO[N+](=O)[O-])c1=O	18.2 µM (inactive)	16.1 µM (inactive)	1.62 µM (inactive)	3.78 µM (inactive)	21.6 µM (inactive)	–	3.99 µM (inactive)	5.42 µM (inactive)	4.23 µM (inactive)	5.7 µM (inactive)	15.9 µM (inactive)	–	3.88 µM (inactive)	2.07 µM (inactive)	11.2 µM (inactive)	18.5 µM (inactive)	26.2 µM (inactive)	1.87 µM (inactive)
O=C(Nc1c(O)[nH]c(=S)[nH]c1=O)c1ccccc1F	> 100 µM (inactive)	> 100 µM (inactive)	> 100 µM (inactive)	> 100 µM (inactive)	> 100 µM (inactive)	> 100 µM (inactive)	> 100 µM (inactive)	–	–	> 100 µM (inactive)	> 100 µM (inactive)	> 100 µM (inactive)	> 100 µM (inactive)	> 100 µM (inactive)	> 100 µM (inactive)	> 100 µM (inactive)	> 100 µM (inactive)	–
C/C(=N/NC(=O)C(N)=O)C(CC(C(=O)Nc1ccccc1C)/C(C)=N\NC(=O)C(N)=O)C(=O)Nc1ccccc1C (stereo not given)	> 100 µM (inactive)	> 100 µM (inactive)	> 100 µM (inactive)	–	> 100 µM (inactive)	> 100 µM (inactive)	> 100 µM (inactive)	–	–	> 100 µM (inactive)	> 100 µM (inactive)	66.4 µM (inactive)	> 100 µM (inactive)	> 100 µM (inactive)	> 100 µM (inactive)	> 100 µM (inactive)	> 100 µM (inactive)	–
Cc1noc(C)c1/N=N/c1ccc2nonc2c1N	–	> 100 µM (inactive)	> 100 µM (inactive)	> 100 µM (inactive)	79.4 µM (inactive)	> 100 µM (inactive)	> 100 µM (inactive)	> 100 µM (inactive)	> 100 µM (inactive)	46.5 µM (inactive)	> 100 µM (inactive)	–	> 100 µM (inactive)	> 100 µM (inactive)	> 100 µM (inactive)	36.7 µM (inactive)	26.1 µM (inactive)	> 100 µM (inactive)
COc1ccc(/C(C)=C2\CCCN(Cc3ccccc3)C2)cc1	33.7 µM (inactive)	32 µM (inactive)	20.2 µM (inactive)	–	18.3 µM (inactive)	28.2 µM (inactive)	18.1 µM (inactive)	20.7 µM (inactive)	18.8 µM (inactive)	25.8 µM (inactive)	22.4 µM (inactive)	13.4 µM (inactive)	31.4 µM (inactive)	22 µM (inactive)	17.5 µM (inactive)	29.9 µM (inactive)	22.9 µM (inactive)	22.5 µM (inactive)
CCCC/C=C1\CCC(C)(CN(C)C)C1=O (stereo not given)	> 100 µM (inactive)	> 100 µM (inactive)	> 100 µM (inactive)	> 100 µM (inactive)	> 100 µM (inactive)	> 100 µM (inactive)	> 100 µM (inactive)	–	–	> 100 µM (inactive)	> 100 µM (inactive)	28.9 µM (inactive)	> 100 µM (inactive)	> 100 µM (inactive)	> 100 µM (inactive)	–	–	–
N#Cc1sc2c(c1OC(=O)c1ccc(Cl)cc1Cl)c(=O)n(-c1ccccc1)c(=S)n2-c1ccccc1	24.9 µM (inactive)	30.5 µM (inactive)	4.85 µM (inactive)	13.4 µM (inactive)	26.4 µM (inactive)	17 µM (inactive)	18.2 µM (inactive)	19.7 µM (inactive)	–	18.8 µM (inactive)	33.3 µM (inactive)	1.12 µM (active)	50.7 µM (inactive)	> 100 µM (inactive)	16.6 µM (inactive)	32.7 µM (inactive)	19.8 µM (inactive)	26.6 µM (inactive)
COc1ccc2c(c1)N(C(C)=O)CN1C(=O)CCC21 (stereo not given)	> 100 µM (inactive)	> 100 µM (inactive)	41.7 µM (inactive)	> 100 µM (inactive)	> 100 µM (inactive)	> 100 µM (inactive)	> 100 µM (inactive)	> 100 µM (inactive)	> 100 µM (inactive)	> 100 µM (inactive)	> 100 µM (inactive)	> 100 µM (inactive)	> 100 µM (inactive)	> 100 µM (inactive)	> 100 µM (inactive)	> 100 µM (inactive)	> 100 µM (inactive)	> 100 µM (inactive)
Cc1c(C)c2cc3c(=O)ccoc3c(C)c2oc1=O	> 100 µM (inactive)	> 100 µM (inactive)	44 µM (inactive)	–	> 100 µM (inactive)	39.8 µM (inactive)	> 100 µM (inactive)	–	–	> 100 µM (inactive)	> 100 µM (inactive)	69.8 µM (inactive)	> 100 µM (inactive)	> 100 µM (inactive)	> 100 µM (inactive)	57.1 µM (inactive)	48.6 µM (inactive)	–
Cc1cc(C)c(C(=O)/C(=C/c2ccccc2)c2ccccc2)c(C)c1	–	38.8 µM (inactive)	35.1 µM (inactive)	34.8 µM (inactive)	> 100 µM (inactive)	86.3 µM (inactive)	49.2 µM (inactive)	–	–	40 µM (inactive)	42.4 µM (inactive)	26.2 µM (inactive)	–	> 100 µM (inactive)	> 100 µM (inactive)	> 100 µM (inactive)	> 100 µM (inactive)	–
CC(C)N(/C(F)=N\C(=O)Nc1ccccc1C(F)(F)F)C(C)C	–	52.1 µM (inactive)	37.9 µM (inactive)	36.6 µM (inactive)	75 µM (inactive)	33.8 µM (inactive)	47.6 µM (inactive)	–	66.5 µM (inactive)	67 µM (inactive)	68.2 µM (inactive)	–	> 100 µM (inactive)	81.5 µM (inactive)	38.4 µM (inactive)	33.7 µM (inactive)	49.9 µM (inactive)	–
O=C(CC(C(=O)c1ccsc1)c1cccs1)c1ccccc1 (stereo not given)	29.9 µM (inactive)	15.6 µM (inactive)	80.4 µM (inactive)	71.4 µM (inactive)	> 100 µM (inactive)	> 100 µM (inactive)	69.2 µM (inactive)	57.3 µM (inactive)	> 100 µM (inactive)	29.7 µM (inactive)	36.6 µM (inactive)	70.1 µM (inactive)	> 100 µM (inactive)	> 100 µM (inactive)	70.5 µM (inactive)	> 100 µM (inactive)	–	9.57 µM (inactive)
CCn1nc(-c2ccccc2)c2c1N(C)c1ccccc1-n1c(-c3ccccc3)nnc1-2	1.46 µM (inactive)	13.3 µM (inactive)	18.8 µM (inactive)	13.1 µM (inactive)	17.9 µM (inactive)	19.9 µM (inactive)	16 µM (inactive)	> 100 µM (inactive)	15.1 µM (inactive)	14 µM (inactive)	14.3 µM (inactive)	–	19.4 µM (inactive)	17.7 µM (inactive)	9.25 µM (inactive)	18.9 µM (inactive)	15.9 µM (inactive)	4.63 µM (inactive)
COC(=O)CCC(=O)c1ccc2c(c1)CC1(C2)Cc2ccc(C(=O)CCC(=O)OC)cc2C1	45 µM (inactive)	> 100 µM (inactive)	> 100 µM (inactive)	> 100 µM (inactive)	43.5 µM (inactive)	> 100 µM (inactive)	66.5 µM (inactive)	> 100 µM (inactive)	73.1 µM (inactive)	59.7 µM (inactive)	–	55.1 µM (inactive)	> 100 µM (inactive)	–	17.3 µM (inactive)	67 µM (inactive)	–	56 µM (inactive)
